In patent US9687467B2, “Diagnosis and treatment of taxane-resistant cancers” (Children's Medical Center Corporation, priority 2011, dated 2017):

Tests used:
MES-SA^DX5 cells = test: MTT cell viability assay, paclitaxel response after miRNA transfection; assay type: cell-based, human; details: cells transfected with scrambled non-targeting miRNA, 100 nM paclitaxel
Description: The paclitaxel-resistant cell lines MES-SA^DX5 and A549^TR were transfected with a scrambled non-targeting miRNA (control) and an miR-135a mimic (mimic), respectively. Cells were subsequently treated with 100 nM paclitaxel and cell viability was assessed using the MTT assay (FIGS. 2A, 2B). The percentage of apoptotic cells was assessed by Annexin V-staining and FACS analysis (FIGS. 2C, 2D). Values are presented as percent cell survival in paclitaxel-treated cells relative to untreated cells. *P<0.05, **P<0.001 as determined by Wilcoxon's rank sum test.
Cell growth inhibition was determined by a 3-(4,5-dimethylthiazol-2-yl)-2,5-diphenyltetrazolium (MTT) bromide assay. Briefly, ˜2.5×10^4 cells were plated in a 96-well plate and paclitaxel was added in appropriate concentrations 24 hours later. […] Absorbance was determined using a 96-well SpectraMax plate reader (Molecular Devices, Sunnyvale, Calif.) at 560 nm and 650 nm (background).
Double-stranded RNA oligos representing a mature sequence that mimics endogenous miR-135a, anti-miR-135a designed to inhibit endogenous miR-135a, and anti-miR negative control were all obtained from Ambion™ and were transfected into cell lines at ˜50% confluence at 30 nM concentration with siLentFect (Bio-Rad™). […] The next day, luciferase activity was measured using the Dual-Glo® Luciferase assay system (Promega™, Madison, Wis.). […]

T28.2 xenografts = test: Retransplantation xenograft, paclitaxel-sensitive control clone; assay type: in vivo, nude mice
Description: FIGS. 6A-6C are a series of graphs showing data that validate the A549 in vivo paclitaxel resistance model. (FIG. 6A) Tumor cell lines established after an initial round of inoculation and treatment with either vehicle (T28.2) or 15 mg/kg paclitaxel (T20.2) were harvested during log-phase growth and reinjected subcutaneously into the flanks of nude mice. When the average tumor volume was ˜120 mm^3, vehicle (open circles or squares) or 15 mg/kg paclitaxel (closed circles or squares) was administered intraperitoneally every other day. Treatment was continued until tumors reached approximately four times their initial volume. Each curve represents the average tumor growth±s.e.m. for 10 mice per group. […] Each bar represents the average tumor growth±s.e.m. for 10 mice per group. NS: not significant, *P<0.05 as determined by Wilcoxon's rank sum test. (FIG. 6C) Tumors were harvested, cultured in vitro and cell viability was assessed using the MTT assay. Values are presented as percentage of cell survival in paclitaxel-treated cells relative to untreated cells. White bars represent LC50s from tumor cell lines established from T28.2 tumors treated with vehicle. Black bars represent LC50s from cell lines established from T20.2 tumors treated with paclitaxel. Shown are the mean±s.e.m. of two independent experiments, each performed in triplicate. *P<0.05 as determined by Wilcoxon's rank sum test. […]

A549 control cells = test: Xenograft of A549 control cells, paclitaxel treatment; assay type: in vivo, nude mice; details: paclitaxel three times a week for 3 weeks; P<0.001
Description: A549 cells stably expressing either non-targeting premiR (A549-control) or premiR-135a (A549-miR-135a) were generated. (FIG. 8A) miR-135a expression level in A549-control and -miR-135a was determined and compared with A549 and A549TR cells using qRT-PCR analysis. *P<0.01. (FIG. 8B) Paclitaxel response of A549-control and A549-premiR-135a cells was determined using the MTT assay. (FIG. 8C) APC protein expression was examined using western blot analysis in A549-control and -premiR-135a cells. (FIG. 8D) A549-control and -premiR-135a cells were inoculated subcutaneously into the flanks of nude mice. Paclitaxel treatment was given three times a week for 3 weeks. The tumor size in each group was measured during the course of treatment and was calculated, relative to the size before treatment initiation. Each curve represents the average tumor growth±s.e.m. for 10 mice per group. **P<0.001 as determined by Wilcoxon's rank sum test.
The inventors subsequently investigated the role of miR-135a in paclitaxel sensitivity in vivo. […] As expected, miR-135a […] attenuated paclitaxel-induced cell death (FIG. 8B) and APC protein expression (FIG. 8C) relative to control transfected A549 cells in vitro. […] Paclitaxel treatment was given three times a week for 3 weeks, and tumor size in each group was monitored during the course of treatment. […]

CC(=O)O[C@H]1C(=O)[C@@]2(C)[C@H]([C@H](OC(=O)c3ccccc3)[C@]3(O)C[C@H](OC(=O)[C@H](O)[C@@H](NC(=O)c4ccccc4)c4ccccc4)C(C)=C1C3(C)C)[C@]1(OC(C)=O)CO[C@@H]1C[C@@H]2O [paclitaxel]
cell survival in paclitaxel-treated cells relative to untreated cells (MES-SA^DX5 cells): 102.2% | tumor growth after paclitaxel treatment (T28.2 xenografts; 15 mg/kg paclitaxel i.p.): shrank substantially | reduction of relative tumor burden at the end of the experiment (T28.2 xenografts; 15 mg/kg paclitaxel i.p. vs vehicle, P=0.003): 4.5 fold | reduction of relative tumor burden at the end of the experiment (A549 control cells): 5 fold
